The values below come from patent US7732425B2, “Pharmaceutical composition for ophthalmic use” (Kabushiki Kaisha Hayashibara Seibutsu Kagaku Kenkyujo, priority 2000, dated 2010).

This data set has as its system ophthalmologic clinical symptoms and signs of Sjögren syndrome. In words: Therapeutic experiment with α,α-trehalose eye drops in patients diagnosed with Sjögren syndrome. Type of data set: in vivo, human. From the text:
To confirm the therapeutic effect by trehalose on the ophthalmologic clinical symptoms and signs of Sjögren syndrome, patients consisting of 10 men and 10 women, 22-65 years old (a mean average of 45 years old), who were diagnosed as Sjögren syndrome and had been suffering from clinical symptoms such as foreign body sensation, burning, and itching in their both eyes, were subjected to a therapeutic experiment. In this experiment, a reagent grade of α,α-trehalose with a purity of 99% or higher, commercialized by Hayashibara Biochemical Laboratories, Inc., Okayama, Japan, was dissolved in physiological saline to give a final concentration of 3.5% (w/v) or 7.5% (w/v), and filtered with a 0.22 μm membrane filter to remove bacteria. Then, the filtrate was removed pyrogen in a usual manner for a test preparation. As a control, a similar preparation was provided except for not dissolving α,α-trehalose therein. The 3.5% (w/v) α,α-trehalose solution was administered to one eye for each one of 5-male and 5-female patients, while the physiological saline as a control was administered to the other eye for each one of the patients. The administrations were conducted at four times (getting up, daytime, evening, and before sleeping) a day and at a dose of two to three drops (a volume of about 0.05 to about 0.075 ml) per shot for four weeks. Before and after this experiment, the patients were asked to grade the symptoms of foreign body sensation, burning, and itching in their eyes. Using the 7.5% (w/v) α,α-trehalose solution, a similar experiment was conducted with the remaining male and female patients, five each.

Setting [1] is: patients with Sjögren syndrome, 3.5% or 7.5% (w/v) solution, four times a day for four weeks.

As to `OC[C@H]1O[C@H](O[C@H]2O[C@H](CO)[C@@H](O)[C@H](O)[C@H]2O)[C@H](O)[C@@H](O)[C@@H]1O` [α,α-trehalose], the “duration of therapeutic effect after end of administration” value (after completion of the four-week experiment) is recorded as “lasted for some days even after the completion of this experiment”. Besides, the “exacerbation of the ophthalmologic clinical symptoms and signs in the treated eyes” value (all twenty patients, during and after completion of the four-week experiment) is on record as “no exacerbation”. Moreover, the “improvement or remission of the subjective ophthalmic symptoms of foreign body sensation, burning, and itching” value (patients with Sjögren syndrome, 3.5% (w/v) or 7.5% (w/v) solution in physiological saline, one eye, 2-3 drops four times a day for four weeks, other eye saline control) is “nine out of ten patients”. Moreover, under setting [1], the “corneal and conjunctival erosions stained by fluorescein and rose bengal (objective sign)” value was “reduced in all the ten patients”; the “tear film break-up time (objective sign)” value is reported as “improved in nine out of ten patients”.
